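Step 1: Grow cells in 96-well plates. Step 2: Expose to compound for 48 hours at 5 concentrations. Step 3: Interpolate endpoints linearly; if unreached, use highest concentration. GI50 is the concentration that inhibits growth by half.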 Activity calls are given as the source filed them. Rule as the data show it: active = GI50 up to about 1.1 µM and inactive = higher.
Columns and labels:
Test in all cases: inhibition of tumour cell growth, NCI panel, 48 h
OVCAR-8 = test system: OVCAR-8
RPMI-8226 = test system: RPMI-8226
SK-MEL-2 = test system: SK-MEL-2
ACHN = test system: ACHN
HCT-15 = test system: HCT-15
EKVX = test system: EKVX
SN12C = test system: SN12C
CCRF-CEM = test system: CCRF-CEM
UACC-62 = test system: UACC-62
A498 = test system: A498
DMS-114 = test system: DMS-114
U-251 = test system: U-251
M19-MEL = test system: M19-MEL
HT-29 = test system: HT-29
UACC-257 = test system: UACC-257
DLD-1 = test system: DLD-1
SNB-75 = test system: SNB-75
LXFL 529 = test system: LXFL 529
SW-620 = test system: SW-620
M14 = test system: M14
OVCAR-5 = test system: OVCAR-5
RXF 631 = test system: RXF 631
OVCAR-4 = test system: OVCAR-4
A549 = test system: A549
COLO 205 = test system: COLO 205
TK-10 = test system: TK-10
NCI-H522 = test system: NCI-H522
SF-539 = test system: SF-539
786-0 = test system: 786-0
NCI-H23 = test system: NCI-H23
UO-31 = test system: UO-31
NCI-H226 = test system: NCI-H226
SF-268 = test system: SF-268
LOX IMVI = test system: LOX IMVI
K562 = test system: K562
SK-MEL-28 = test system: SK-MEL-28
SNB-78 = test system: SNB-78
HCC 2998 = test system: HCC 2998
RXF 393 = test system: RXF 393
OVCAR-3 = test system: OVCAR-3
HCT-116 = test system: HCT-116
NCI-H460 = test system: NCI-H460
HL-60 = test system: HL-60
IGROV-1 = test system: IGROV-1
HOP-18 = test system: HOP-18
KM-20L2 = test system: KM-20L2
HOP-62 = test system: HOP-62
XF498 = test system: XF498
MOLT-4 = test system: MOLT-4
SNB-19 = test system: SNB-19
Malme-3M = test system: Malme-3M
SF-295 = test system: SF-295
KM12 = test system: KM12
SK-MEL-5 = test system: SK-MEL-5
CAKI-1 = test system: CAKI-1
SK-OV-3 = test system: SK-OV-3

Measured: GI50

Nc1nc(=O)n(C2CC(O)C(O)C(CO)O2)cc1F (stereo unspecified)
> 100 µM: HCT-15
inactive: OVCAR-8 > 100 µM | RPMI-8226 > 100 µM | SK-MEL-2 > 100 µM | ACHN > 100 µM | EKVX > 100 µM | SN12C > 100 µM | CCRF-CEM > 100 µM | UACC-62 > 100 µM | A498 > 100 µM | DMS-114 > 100 µM | U-251 > 100 µM | M19-MEL > 100 µM | HT-29 > 100 µM | UACC-257 > 100 µM | DLD-1 > 100 µM | SNB-75 > 100 µM | LXFL 529 > 100 µM | SW-620 > 100 µM | M14 > 100 µM | OVCAR-5 > 100 µM | RXF 631 > 100 µM | OVCAR-4 > 100 µM | A549 > 100 µM | COLO 205 > 100 µM | TK-10 > 100 µM | NCI-H522 > 100 µM | SF-539 > 100 µM | 786-0 > 100 µM | NCI-H23 > 100 µM | UO-31 > 100 µM | NCI-H226 > 100 µM | SF-268 > 100 µM | LOX IMVI > 100 µM | K562 > 100 µM | SK-MEL-28 > 100 µM | SNB-78 > 100 µM | HCC 2998 > 100 µM | RXF 393 > 100 µM | OVCAR-3 > 100 µM | HCT-116 > 100 µM | NCI-H460 > 100 µM | HL-60 > 100 µM | IGROV-1 > 100 µM | HOP-18 > 100 µM | KM-20L2 > 100 µM | HOP-62 > 100 µM | XF498 61.4 µM | MOLT-4 > 100 µM | SNB-19 > 100 µM | Malme-3M > 100 µM | SF-295 > 100 µM

CCOP1(=O)C=C(C)C(=C(Cl)Cl)C(C)=C1 (stereo unspecified)
8.79 µM: HCT-15
active: XF498 0.548 µM
inactive: OVCAR-8 20.7 µM | RPMI-8226 3.29 µM | SK-MEL-2 3.72 µM | ACHN 17.1 µM | EKVX 18.9 µM | SN12C 15 µM | CCRF-CEM 10.2 µM | UACC-62 6.46 µM | KM12 1.71 µM | A498 19.2 µM | SK-MEL-5 5.9 µM | U-251 13.9 µM | CAKI-1 11.6 µM | M19-MEL 8.07 µM | HT-29 4.72 µM | UACC-257 3.54 µM | DLD-1 24 µM | SNB-75 3.33 µM | LXFL 529 3.78 µM | SW-620 7.45 µM | M14 8.32 µM | RXF 631 5.87 µM | OVCAR-4 15.2 µM | A549 8.28 µM | COLO 205 11.7 µM | TK-10 21.3 µM | NCI-H522 3.58 µM | SF-539 18.1 µM | 786-0 23.7 µM | NCI-H23 15.8 µM | UO-31 13.9 µM | NCI-H226 2.39 µM | SF-268 9.57 µM | LOX IMVI 4.36 µM | K562 3.52 µM | SK-MEL-28 22.5 µM | SNB-78 > 10 µM | SK-OV-3 35.1 µM | HCC 2998 14.6 µM | RXF 393 15.6 µM | OVCAR-3 20.6 µM | HCT-116 2.51 µM | NCI-H460 17.5 µM | HL-60 3.33 µM | IGROV-1 24 µM | HOP-18 13.8 µM | KM-20L2 2.68 µM | HOP-62 15.4 µM | MOLT-4 5.64 µM | SNB-19 20.1 µM | Malme-3M 17.1 µM | SF-295 6.24 µM
